Format in all cases: cell-based, human
One data set concerns A2058 cells. Kind of data set: MTT cell growth rate, A2058 melanoma cells. To be noted: for cell growth rate: A2058, 100 μM. Here is the method: (§1) The human melanoma cell line A2058, kindly provided by CEINGE (Naples, Italy), and SAN cells were derived from lymph nodal metastases and grown in DMEM and RPMI 1640, respectively, supplemented with 10% FBS, 2 mM L-glutamine, 100 IU/mL penicillin G, and 100 μg/mL streptomycin in humidified incubator at 37°C under 5% CO2 atmosphere. All cells were split and seeded every three days and used during the exponential phase of growth. Cell treatments were always carried after 24 h from plating.
(§2) The MTT assay was used to detect cell proliferation essentially as previously described. Briefly, A2058 and SAN cells were plated in 96-well microtiter plates (100 μL/well) at 4000 and 6000 cells/well, respectively. After 24-h seeding, cells were treated with the selected compounds added at 25, 50 or 100 μM concentration, or with 0.5% (v/v) DMSO as a vehicle control. After 24-h, 48-h or 72-h treatment, and upon the addition of 10 μL of MTT solution in the dark, the plate was incubated for 3 h at 37°C under CO2 atmosphere. After medium aspiration and solubilization of formazan crystals, absorbance was measured at 570 nm, using an ELISA plate reader (Bio-Rad, Milano, Italy).

The subject of data set [1] is SAN cells. The experiment in a line: MTT cell growth rate, SAN melanoma cells. To be noted: 100 μM, 48 h, MTT. As to the method: as §1, §2
The subject of the next data set is CDC25B protein levels. Kind of data set: Western blotting of CDC25B protein levels in A2058 cells. To be noted: A2058, 100 μM, up to 16 h. Here is the method:
To better investigate the effect of this inhibitor at the molecular level, we evaluated if the treatment of A2058 cells with 7 affected also the protein levels of the three CDC25 forms. […] On the other hand, the protein levels of CDC25B were unaffected by treatment of A2058 cells with 7 up to 16 h.
A2058 cells were seeded into 6-well-plates (3 × 10^5 cells/plate) for 24 h at 37°C and then treated at different times with 100 μM compound 7 or 0.5% DMSO. After treatment, cells were harvested, washed with PBS and then lysed in ice-cold modified radio immunoprecipitation assay (RIPA) buffer (50 mM Tris-HCl, pH 7.4, 150 mM NaCl, 1% Nonidet P-40, 0.25% sodium deoxycholate, 1 mM Na3VO4 and 1 mM NaF), supplemented with protease inhibitors and incubated for 30 min on ice. The supernatant obtained after centrifugation at 12,000 rpm for 30 min at 4°C constituted the total protein extract. The protein concentration was determined by the method of Bradford, using bovine serum albumin (BSA) as standard. Equal amounts of total protein extracts were used for Western blot analysis. […] Membranes were then analysed by an enhanced chemiluminescence reaction, using Super Signal West Pico kit (Pierce) according to manufacturer's instruction; signals were visualized by autoradiography.
On the technique in general: In western blotting, separated proteins are transferred to a membrane and probed.

The test system of data set [2] is SAN cells. The experiment in a line: Apoptosis, subdiploid DNA content by PI flow cytometry, SAN cells. The source says: PI incorporation followed by flow cytometric analysis was used to detect the effect of 7 on the number of nuclei with a sub-diploid content, a typical hallmark of apoptosis. A time-dependent increase of apoptosis was evident in both A2058 and SAN cells and in particular, the effect of 7 on cell death program was already evident after 24-h treatment (Figure 7). […] To further investigate on the capacity of 7 to induce apoptosis, the enzymatic activity of caspase-3, the final effector of apoptotic program, was monitored.
[…] After each treatment, cells were harvested with trypsin, centrifuged and the pellet was resuspended in phosphate-buffered saline (PBS). For cell cycle analysis, cells were fixed with 70% (v/v) cold ethanol and stored at −20°C for 1 h. Then, cells were washed with cold PBS, centrifuged and the pellets were resuspended in 200 μL of a non-lysis solution containing 50 μg/mL PI. For the evaluation of apoptosis, cells were not fixed in ethanol and directly resuspended in 200 μL of a hypotonic lysis solution containing 50 μg/mL PI. After incubation at 4°C for 30 min, cells were analyzed with a FACScan flow cytometer (Becton Dickinson) for evaluating the distribution in cell cycle phases or the presence of nuclei with a DNA content lower than the diploid.
In general terms: In flow cytometry, cells or beads pass a laser one at a time.

The test system of data set [3] is SAN cells. The experiment in a line: Intracellular ROS level (DCFH-DA), SAN cells. To be noted: SAN, then 100 μM 7 for 4 h. As to the method:
The high redox reactivity of quinonoid molecules, like compound 7, could greatly perturb the intracellular redox state. […] The oxidant effect of 7 was also evaluated after cell pre-treatment with two antioxidant molecules, such as N-acetyl-cysteine (NAC) and the specific inhibitor of NADPH oxidase, apocynin. To this aim, A2058 and SAN cells were pre-incubated for 1 h with 10 mM NAC or 45 min with 0.5 mM apocynin and then treated for 4 h with 100 μM compound 7. […] The cytotoxic activity of 7 could be mediated by the observed increase of ROS level.
The intracellular ROS level was monitored using the oxidation-sensitive fluorescence probe DCFH-DA. Cells were seeded into 6-well-plates (3 × 10^5 cells/plate) for 24 h at 37°C and then treated at various times with 100 μM compound 7 or 0.5% DMSO. DCFH-DA was added in the dark at 10 μM final concentration 30-min before the end of each incubation; then, cells were collected, washed in PBS, and finally resuspended in 500 μL PBS for fluorimetric analysis. Measurements were realized in a Cary Eclipse fluorescence spectrophotometer (Varian); excitation and emission wavelengths were set at 485 nm and 530 nm, respectively; both excitation and emission slits were set at 10 nm. The effect of 7 on ROS production was also estimated after pretreatment of cells with 10 mM NAC for 1 h.
Supplementary Figure S5: ROS production and their involvement in the apoptotic process of SAN cells, as induced by treatment with compound 7. A. Time-dependent measurement of ROS production. Cells were incubated with 0.5% DMSO (open bars) or 100 μM compound 7 (black bars) and then the intracellular ROS level was measured. B. Effect of antioxidant molecules on ROS production. The ROS level was also measured in cells untreated or pretreated with NAC or apocynin after a 4-h incubation with DMSO or 7. C. Effect of NAC on apoptosis. The PI incorporation was evaluated in cells untreated or pretreated with NAC after a 48-h incubation with DMSO or 7. ROS production was expressed as a.u., and apoptosis as a percentage. […]

The results in this text go back to publication PMC4741889, “Ligand-based chemoinformatic discovery of a novel small molecule inhibitor targeting CDC25 dual specificity phosphatases and displaying in vitro efficacy against melanoma cells” (Oncotarget, 2015).

For `O=C(O)C1CCCCC1c1c2ccc(=O)cc-2oc2cc(O)ccc12` (stereo not shown) [Compound 7, 2-(6-hydroxy-3-oxo-3H-xanthen-9-yl)cyclohexanecarboxylic acid], the cell growth rate entry in the data set with A2058 cells (48 h, MTT) is given as “significant reduction of the cell growth rate”; in the data set with A2058 cells (72 h, MTT (data not shown)), “significant reduction of cell growth rate”; in the data set on SAN cells [1], “significant reduction of cell growth rate”. Besides, the “minimum concentration of inhibitor that caused an evident cytotoxic activity” value in the data set with A2058 cells (A2058, 25, 50 or 100 μM tested, 48 h (Supplementary Figure S2)) is 100 µM. Further, the CDC25B protein levels result with CDC25B protein levels is “unaffected”. Also, the “level of apoptosis caused by 7 in the presence of Z-VAD-FMK” value in the data set with SAN cells [2] (100 μM 7 + 100 μM Z-VAD-FMK, 48 h) was “significantly decreased”. Also, the “apoptosis (nuclei with sub-diploid content)” value in the data set on SAN cells [2] (100 μM, 24-72 h) is “increase of apoptosis was significant even at 24-h treatment”. Moreover, in the data set with SAN cells [2] (NAC pre-treatment, 100 μM 7, 48 h), the “apoptosis after NAC pre-treatment” value was “in a great part reverted”. The “increase of ROS level after apocynin pre-treatment” value in the data set on SAN cells [3] (0.5 mM apocynin 45 min) was “did not prevent the increase of ROS level”. Also, the “increase of ROS level after NAC pre-treatment” value in the data set with SAN cells [3] (10 mM NAC 1 h) is on record as “prevented by the NAC treatment”.
